Where “and” joins values, the source holds several entries; their conditions need not be identical. Identical values can stand only once. Square brackets hold non-standard residues; d marks the D form. Peptide text beside a SMILES is read from it. Nle = CCCC[C@H](N)C(=O)O
Assays:
Hmg2p = target: T1, Hmg2p (Saccharomyces cerevisiae, UniProt P12684); test: Hmg2p degradation by cycloheximide chase and stationary chase with immunoblotting; type: cell-based, yeast; settings: small dose of lovastatin (50 μg/ml) added to cultures
T1 construct: Note the lowered mobility of the 6myc-Hmg2p protein as compare to the native Hmg2p; expressed in transfected cells; host or cells: S. cerevisiae strain RHY183 (hmg1 and hmg2 disrupted; single integrated HMG2 coding region under the GAPDH promoter)
T1 sequence (P12684 1-1045): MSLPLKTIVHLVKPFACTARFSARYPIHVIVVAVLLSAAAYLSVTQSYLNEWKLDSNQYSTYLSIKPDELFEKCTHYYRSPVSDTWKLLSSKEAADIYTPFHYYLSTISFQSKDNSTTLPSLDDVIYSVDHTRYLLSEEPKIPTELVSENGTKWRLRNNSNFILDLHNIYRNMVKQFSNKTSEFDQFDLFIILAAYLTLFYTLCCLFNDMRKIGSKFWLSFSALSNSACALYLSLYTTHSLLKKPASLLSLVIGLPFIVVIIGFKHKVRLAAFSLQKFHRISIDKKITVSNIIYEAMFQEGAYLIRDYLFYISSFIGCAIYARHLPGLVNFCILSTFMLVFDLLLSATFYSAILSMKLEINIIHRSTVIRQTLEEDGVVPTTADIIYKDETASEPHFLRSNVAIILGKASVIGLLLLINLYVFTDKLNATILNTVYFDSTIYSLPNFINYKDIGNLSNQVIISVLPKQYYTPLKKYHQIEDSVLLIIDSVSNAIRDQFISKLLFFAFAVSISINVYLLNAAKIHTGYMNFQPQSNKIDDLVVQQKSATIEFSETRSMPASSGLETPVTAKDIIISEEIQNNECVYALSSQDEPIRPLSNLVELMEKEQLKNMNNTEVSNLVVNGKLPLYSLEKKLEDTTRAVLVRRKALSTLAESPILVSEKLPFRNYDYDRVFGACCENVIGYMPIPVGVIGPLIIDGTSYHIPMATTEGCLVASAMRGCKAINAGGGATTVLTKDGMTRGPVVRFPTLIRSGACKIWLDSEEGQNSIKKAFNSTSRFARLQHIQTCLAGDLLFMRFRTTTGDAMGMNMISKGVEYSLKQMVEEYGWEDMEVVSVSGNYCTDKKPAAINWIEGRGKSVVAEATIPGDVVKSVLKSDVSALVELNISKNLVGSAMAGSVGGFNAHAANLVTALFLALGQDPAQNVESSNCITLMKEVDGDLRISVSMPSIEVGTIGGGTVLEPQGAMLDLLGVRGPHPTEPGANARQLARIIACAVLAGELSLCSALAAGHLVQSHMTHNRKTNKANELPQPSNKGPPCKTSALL
Text: (§1) FIG. 1. 6myc-Hmg2p: an unregulated variant of Hmg2p. A) schematic diagram of the unregulated 6myc-Hmg2p. […] The tagged protein was still capable of catalyzing the reduction of 3-hydroxy-3-methyl glutaryl CoA (HMG-CoA) to mevalonate (MEV), an essential intermediate of cholesterol biosynthesis. B) The degradation of 6myc-Hmg2p was not regulated by the mevalonate pathway. Cells expressing 6myc-Hmg2p (RHY244) or Hmg2p (RHY183) were examined for degradation of each protein by addition of cycloheximide at time zero and subsequent immunoblotting, as described by Hampton and Rine (J Cell Biol 125: 299-312, 1994). In the indicated samples, 50 μg/ml of lovastatin was added along with the cycloheximide at t=0. The 6myc-Hmg2planes (left panel) were immunoblotted using the 9E10 anti-myc antibody, and the Hmg2p lanes (right panel) were immunoblotted with affinity purified anti-Hmg1p protein. Each lane contained lysate from ˜0.2 O.D.600 units of cells. C) Test of 6myc-Hmg2p degradation by “stationary chase.” Log phase (OD600˜0.5) cultures of the strains used in Panel B were allowed to grow for an additional 15 hours at 30° C., and then subjected to lysis and immunoblotting to evaluate degradation of the expressed reductase (Hampton et al., Proc. Natl. Acad. Sci. USA. 93: 828-833, 1996). […]

6myc-Hmg2p = 6myc-Hmg2p degradation by cycloheximide chase and stationary chase with immunoblotting; type: cell-based, yeast; settings: small dose of lovastatin (50 μg/ml) added to cultures
Text: as §1

[1] = system: strain expressing Hmg2p (RHY183); test: Lovastatin sensitivity (growth, plating efficiency) of strain expressing Hmg2p; type: cell-based, yeast
[2] = system: strain expressing 6myc-Hmg2p (RHY244); test: Lovastatin sensitivity (growth, plating efficiency) of strain expressing 6myc-Hmg2p; type: cell-based, yeast; settings: liquid medium, FIG. 1d
mammalian HMG-R = settings: mammalian cells, previous studies; cited from earlier work
proteasome = settings: Jensen et al. 1995; cited from earlier work
hrd mutant yeast strains = test: Canavanine sensitivity of hrd mutant strains on solid medium; type: cell-based; settings: 1.5 μg/ml canavanine, 30° C., one week; versus isogenic parent strain
Procedure: FIG. 7. Proteasomal phenotypes associate with the hrd2-1 mutant. A) Canavanine sensitivity. Liquid cultures of strains with the indicated mutations, but otherwise isogenic, were spotted onto supplemented minimal medium ([…] of ˜0.5 OD) with or without 1.5 μg/ml canavanine as indicated, and allowed to grow at 30° C. for a week. B) Global ubiquitination. Lysates of the same strains were immunoblotted with affinity-purified anti-ubiquitin antibody to survey the degree of ubiquitination of cellular proteins. The line indicates the position of an 80 kD marker. Equal amounts of protein were loaded in each lane and the transfer efficiency from each lane was identical, as judged by India ink staining. The average increase in the amount of ubiquitin conjugates in the hrd2-1 mutant was approximately threefold over the amount in other strains. C) Complementation of the hrd2-1 mutant by the human TRAP-2 coding region. Strain RHY402 (hrd2-1, Ura^−) was transformed with parent vector pRH98-1, with a centromere plasmid containing the HRD2 gene (pRH482) or with a plasmid that expressed the TRAP-2 coding region from the GAPDH promoter (pRH492). These transformants are noted “vector, HRD2, and TRAP-2”, respectively. Each strain was then streaked on solid medium with 0 (top) or 200 μg/ml (bottom) and allowed to grow at 37° C. […]

CC[C@H](C)C(=O)O[C@H]1C[C@@H](C)C=C2C=C[C@H](C)[C@H](CC[C@@H]3C[C@@H](O)CC(=O)O3)[C@H]21 [lovastatin]
effect on degradation of wild-type Hmg2p (Hmg2p): dramatically stabilized
effect on degradation of 6myc-Hmg2p (6myc-Hmg2p): unaffected
growth of strain ([1]; hmg1::LYS2 hmg2::HIS3 strain with single integrated HMG2 driven by GAPDH promoter, dose-dependent): blocked
plating efficiency of surviving colonies on lovastatin medium ([1]; non-mutagenized cells expressing wild-type Hmg2p, solid lovastatin-containing medium): 0.1-1% and ~1%
lovastatin sensitivity relative to isogenic strain expressing HMG2 [2]: more sensitive

CCCC[C@@H](C=O)NC(=O)[C@H](CC(C)C)NC(=O)[C@H](CC(C)C)NC(C)=O [ALLN] (Ac-Leu-Leu-[Nle]-aldehyde)
degradation of mammalian HMG-R (mammalian HMG-R): inhibited
inhibition of the proteasome (proteasome): potent inhibitor

N=C(N)NOCC[C@H](N)C(=O)O [canavanine]
sensitivity of hrd1 or hrd3 alleles to canavanine (hrd mutant yeast strains): no more sensitive
sensitivity of hrd2 mutants to canavanine (hrd mutant yeast strains): heightened sensitivity

From US6531292B1, “Genes and proteins controlling cholesterol synthesis” (The Regents of the University of California, priority 1995, dated 2003)
